The text below walks through data of PubChem BioAssay AID330 (DTP/NCI, 2004).

This experiment relates to P388 leukemia ip, CD2F1 mice, survival T/C. The experiment is described as follows: NCI In Vivo Anticancer Drug Screen. Data for tumor model P388 Leukemia (intraperitoneal) in CD2F1 (CDF1) mice. Conditions: endpoint: median survival time, higher = longer survival. The method, boiled down: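 Mice carrying the transplanted tumor received test compound or vehicle. Survival was recorded in each group, and the value is the treated-group measurement divided by that of the vehicle-treated control group.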

Setting [1] is: dose: 60.0 mg/kg/injection, schedule: Q01DX005 (ip), vehicle: Klucel (hydroxypropylcellulose) (HPC).
Where [2] appears, read: dose: 120.0 mg/kg/injection, schedule: Q01DX005 (ip), vehicle: Klucel (hydroxypropylcellulose) (HPC).
Setting [3] is: dose: 240.0 mg/kg/injection, schedule: Q01DX005 (ip), vehicle: Klucel (hydroxypropylcellulose) (HPC).
Where [4] appears, read: dose: 60.0 mg/kg/injection, schedule: Q01DX005 (ip), vehicle: saline with Tween-80.
Setting [5] is: dose: 120.0 mg/kg/injection, schedule: Q01DX005 (ip), vehicle: saline with Tween-80.
The mark [6] stands for this setting: dose: 240.0 mg/kg/injection, schedule: Q01DX005 (ip), vehicle: saline with Tween-80.
The mark [7] stands for this setting: dose: 50.0 mg/kg/injection, schedule: Q01DX005 (ip), vehicle: saline with Tween-80.
[8] abbreviates: dose: 100.0 mg/kg/injection, schedule: Q01DX005 (ip), vehicle: saline with Tween-80.
The mark [9] stands for this setting: dose: 200.0 mg/kg/injection, schedule: Q01DX005 (ip), vehicle: saline with Tween-80.
Where [10] appears, read: dose: 100.0 mg/kg/injection, schedule: Q01DX001 (ip), vehicle: Klucel (hydroxypropylcellulose) (HPC).
Setting [11] is: dose: 200.0 mg/kg/injection, schedule: Q01DX001 (ip), vehicle: Klucel (hydroxypropylcellulose) (HPC).
[12] abbreviates: dose: 400.0 mg/kg/injection, schedule: Q01DX001 (ip), vehicle: Klucel (hydroxypropylcellulose) (HPC).
Setting [13] is: dose: 50.0 mg/kg/injection, schedule: Q01DX009 (ip), vehicle: saline.
Setting [14] is: dose: 100.0 mg/kg/injection, schedule: Q01DX009 (ip), vehicle: saline.
[15] abbreviates: dose: 200.0 mg/kg/injection, schedule: Q01DX009 (ip), vehicle: saline.

Inconclusive results and toxic doses are left out.

As to `CN1C(=O)[C@@H]2N(N(C)C1=O)[C@@]1(Br)C(=O)N(C)C(=O)[C@@]21Br`, the T/C is 100 % of control under setting [1], 105 % of control under setting [2] and 101 % of control under setting [3].
In the case of `COc1ccc(N=Nc2c(-c3ccccc3)nn(C(=S)SC)c2-c2ccccc2)cc1`, the T/C by setting is: (dose: 100.0 mg/kg/injection, schedule: Q01DX001 (ip), vehicle: saline with Tween-80) 92 % of control; (dose: 200.0 mg/kg/injection, schedule: Q01DX001 (ip), vehicle: saline with Tween-80) 95 % of control; (dose: 400.0 mg/kg/injection, schedule: Q01DX001 (ip), vehicle: saline with Tween-80) 108 % of control.
Take `CCOc1c(N=Nc2ccc([N+](=O)[O-])cc2)c(C)nn1C(=S)S`: the T/C runs as follows: under setting [1], 100 % of control; under setting [2], 95 % of control; under setting [3], 100 % of control.
As for `CCOC(=O)Nc1nc2ccccc2n1CN1CCCC1`, the T/C is 112 % of control (dose: 25.0 mg/kg/injection, schedule: Q01DX005 (ip), vehicle: Klucel (hydroxypropylcellulose) (HPC)); 111 % of control (dose: 50.0 mg/kg/injection, schedule: Q01DX005 (ip), vehicle: Klucel (hydroxypropylcellulose) (HPC)); 114 % of control (dose: 100.0 mg/kg/injection, schedule: Q01DX005 (ip), vehicle: Klucel (hydroxypropylcellulose) (HPC)); 117 % of control (dose: 200.0 mg/kg/injection, schedule: Q01DX005 (ip), vehicle: Klucel (hydroxypropylcellulose) (HPC)).
For `CC1(C)COC1(c1ccccc1)c1cccnc1` (stereo unspecified), the T/C is, setting by setting: under setting [4], 97 % of control; under setting [5], 102 % of control; under setting [6], 93 % of control.
Regarding `O=C1CS(=O)(=O)C(c2cccc(Cl)c2)N1N1C(=O)CS(=O)(=O)C1c1cccc(Cl)c1` (stereo unspecified), the T/C under setting [7] was 92 % of control, the T/C under setting [8] was 100 % of control and the T/C under setting [9] is 92 % of control.
For `Cn1c2ccccc2c2ccc3c(c21)C(=O)C=CC3=O`, the T/C (dose: 25.0 mg/kg/injection, schedule: Q01DX009 (ip), vehicle: distilled water + Tween-80) was 120 % of control.
For the compound `CC(=O)Oc1c2occc2cc2ccc(=O)oc12`, the T/C was 99 % of control under setting [7], 98 % of control under setting [8] and 100 % of control under setting [9].
Take `CC(=O)OC1CC2(OC(C)=O)CC(OC2=O)C1OC(C)=O` (stereo unspecified): the T/C is, setting by setting: under setting [10], 100 % of control; (dose: 100.0 mg/kg/injection, schedule: Q04DX002 (ip), vehicle: Klucel (hydroxypropylcellulose) (HPC)) 100 % of control; under setting [11], 100 % of control; (dose: 200.0 mg/kg/injection, schedule: Q04DX002 (ip), vehicle: Klucel (hydroxypropylcellulose) (HPC)) 100 % of control; under setting [12], 99 % of control; (dose: 400.0 mg/kg/injection, schedule: Q04DX002 (ip), vehicle: Klucel (hydroxypropylcellulose) (HPC)) 98 % of control.
For the compound `CN(C=O)/C=C1\CC(OO)NC1=O` (stereo unspecified), the T/C runs as follows: (dose: 60.0 mg/kg/injection, schedule: Q01DX005 (ip), vehicle: saline) 100 % of control; (dose: 120.0 mg/kg/injection, schedule: Q01DX005 (ip), vehicle: saline) 101 % of control; (dose: 240.0 mg/kg/injection, schedule: Q01DX005 (ip), vehicle: saline) 103 % of control.
For `CC1=C(CO)C(=O)OC(C(C)C2CCC3C4CC5OC56C(O)C(N5CCCC5)CC(=O)C6(C)C4CCC23C)C1` (stereo unspecified), the T/C (dose: 8.75 mg/kg/injection, schedule: Q01DX005 (ip), vehicle: Klucel (hydroxypropylcellulose) (HPC)) was 94 % of control; the T/C (dose: 17.5 mg/kg/injection, schedule: Q01DX005 (ip), vehicle: Klucel (hydroxypropylcellulose) (HPC)) was 97 % of control; the T/C (dose: 35.0 mg/kg/injection, schedule: Q01DX005 (ip), vehicle: Klucel (hydroxypropylcellulose) (HPC)) is 99 % of control; the T/C (dose: 70.0 mg/kg/injection, schedule: Q01DX005 (ip), vehicle: Klucel (hydroxypropylcellulose) (HPC)) was 111 % of control; the T/C (dose: 140.0 mg/kg/injection, schedule: Q01DX005 (ip), vehicle: Klucel (hydroxypropylcellulose) (HPC)) is 103 % of control.
For the compound `CCOc1ccc2cc(S(=O)(=O)O)ccc2c1N`, the T/C runs as follows: (dose: 100.0 mg/kg/injection, schedule: Q04DX003 (ip), vehicle: saline with Tween-80) 100 % of control; (dose: 200.0 mg/kg/injection, schedule: Q04DX003 (ip), vehicle: saline with Tween-80) 90 % of control; (dose: 400.0 mg/kg/injection, schedule: Q04DX003 (ip), vehicle: saline with Tween-80) 100 % of control.
For the compound `O=C(CNC(=O)c1ccccc1)N/N=C/c1c(O)ccc2ccccc12`, the T/C was 95 % of control under setting [4], 93 % of control under setting [5] and 101 % of control under setting [6].
Regarding `C1CN(P2(N3CC3)=NP(N3CC3)(N3CC3)=NP(N3CC3)(N3CC3)=N2)CCO1` (stereo unspecified), the T/C reads like this: (dose: 3.13 mg/kg/injection, schedule: Q01DX009 (ip), vehicle: saline) 123 % of control; (dose: 4.0 mg/kg/injection, schedule: Q01DX009 (ip), vehicle: saline) 161 % of control; (dose: 6.25 mg/kg/injection, schedule: Q01DX009 (ip), vehicle: saline) 157 % of control; (dose: 8.0 mg/kg/injection, schedule: Q01DX009 (ip), vehicle: saline) 212 % of control; (dose: 12.5 mg/kg/injection, schedule: Q01DX009 (ip), vehicle: saline) 183 % of control; (dose: 16.0 mg/kg/injection, schedule: Q01DX009 (ip), vehicle: saline) 174 % of control. The T/C by setting is: (dose: 25.0 mg/kg/injection, schedule: Q01DX009 (ip), vehicle: saline) 215 % of control; (dose: 32.0 mg/kg/injection, schedule: Q01DX009 (ip), vehicle: saline) 235 % of control; under setting [13], 104 % of control; (dose: 64.0 mg/kg/injection, schedule: Q01DX009 (ip), vehicle: saline) 108 % of control; under setting [14], 86 % of control.
Turning to `NS(=O)(=O)c1ccc(N=CC2C(=O)N(c3ccccc3)N(c3ccccc3)C2=O)cc1`, the T/C by setting is: under setting [10], 87 % of control; under setting [11], 89 % of control; under setting [12], 92 % of control.
For `CC1(C)OC2CC(=O)OCC23C1=C(O)C(=O)C1(C)C3CCC2(C)C(c3ccoc3)OC(=O)C3OC321` (stereo unspecified), the T/C is 101 % of control (dose: 0.5 mg/kg/injection, schedule: Q01DX009 (ip), vehicle: saline + alcohol); 104 % of control (dose: 1.0 mg/kg/injection, schedule: Q01DX009 (ip), vehicle: saline + alcohol); 106 % of control (dose: 2.0 mg/kg/injection, schedule: Q01DX009 (ip), vehicle: saline + alcohol); 106 % of control (dose: 4.0 mg/kg/injection, schedule: Q01DX009 (ip), vehicle: saline + alcohol); 101 % of control (dose: 8.0 mg/kg/injection, schedule: Q01DX009 (ip), vehicle: saline + alcohol).
In the case of `O=C(O)c1c[nH]c2cc(OCCc3ccccc3)ccc2c1=O`, the T/C is 101 % of control under setting [13], 107 % of control under setting [14] and 107 % of control under setting [15].
For `CC(O)CN(CCN(CC(C)O)CC(C)O)CC(C)O` (stereo unspecified), the T/C is, setting by setting: (dose: 50.0 mg/kg/injection, schedule: Q01DX005 (ip), vehicle: saline) 105 % of control; (dose: 100.0 mg/kg/injection, schedule: Q01DX005 (ip), vehicle: saline) 103 % of control; (dose: 200.0 mg/kg/injection, schedule: Q01DX005 (ip), vehicle: saline) 103 % of control.
For `CCCNC(=S)Nc1ncco1`, the T/C under setting [13] was 100 % of control, the T/C under setting [14] was 96 % of control and the T/C under setting [15] is 111 % of control.
